Results published in patent US9726664B2, “Animal model for diabetic complications” (NEDERLANDSE ORGANISATIE VOOR …, priority 2010, dated 2017).

Tests used:
LDLr−/− mice [1] = test: Intervention study in LDLr−/− mice on 45 En % Lard diet: body weight and adipose depots; assay type: in vivo; settings: for gonadal fat mass: drug mixed into diet from week 9 until week 16, FIG. 6
Description: Based on the findings of the above experiment, an intervention study was designed. The middle dose (45 En % lard diet) was defined to be the optimal diet to use for interventions with drugs since ALAT was not increased Thereby putative adverse liver effects of drugs can still be detected. Several anti-diabetic interventions (drugs and life-style) were tested according to the experimental set-up described above.
LDLr−/− mice (12 weeks old) were fed 45 En % Lard diet for 9 weeks to establish a prediabetic state (as described above and including visceral adiposity, hypertriglyceridemia, elevated glucose and insulin, chronic inflammation). After these 9 weeks, the interventions were started and continued until week 16. Drugs were mixed into lard diet and administered orally via the feed. One group of mice was sacrifice at the start of the intervention at week 9 for reference. Another control group was fed chow throughout the 16 weeks (serving as internal reference). The groups were as follows:
(§1) Body weight and food intake were measured regularly and blood samples were taken at t=0, t=6, t=9, t=12, t=14 and t=15 weeks. Spot urine was collected at t=0, t=8 and t=15 weeks. At the end of the study, the mice were sacrificed and the various organs were isolated and weighed and stored at −80 C and/or in formalin. Livers were processed for microarray analysis. More specifically, the same lobe of each liver was used for RNA extraction to prepare mRNA of microarray quality according to an established protocol (Kleemann et al., Genome Biology, 2007).

LDLr−/− mice [2] = test: Intervention study in LDLr−/− mice on 45 En % Lard diet: microalbuminuria (albumine/creatinine ratio in spot urine); assay type: in vivo; settings: compared to high fat treated control animals not treated with drugs, ratio as μg albumine per mg creatinine, drug mixed into 45 En % Lard diet from week 9 until week 16, FIG. 7
Description: Several anti-diabetic interventions (drugs and life-style) were tested according to the experimental set-up described above.
After these 9 weeks, the interventions were started and continued until week 16. Drugs were mixed into lard diet and administered orally via the feed. One group of mice was sacrifice at the start of the intervention at week 9 for reference. Another control group was fed chow throughout the 16 weeks (serving as internal reference). The groups were as follows:
as §1
Microalbuminuria is a hallmark of diabetic nephropathy and was determined by measuring the concentration of albumine and creatinine in spot urine collected at various time points during the experiment. Subsequently the albumine/creatinine ratio was calculated, viz. the amount of albumine expressed in μg per mg creatinine (FIG. 7).

Row | Structure (SMILES) | gonadal fat mass (LDLr−/− mice [1]) | body weight (LDLr−/− mice [1]; drug mixed into diet, orally via feed, from week 9 until week 16, FIG. 5) | albumine/creatinine ratio (microalbuminuria) (LDLr−/− mice [2])
1 | O=S(=O)(c1ccccc1)N(CC(F)(F)F)c1ccc(C(O)(C(F)(F)F)C(F)(F)F)cc1 [LXR agonist] | lowered | reduced | –
2 | CC(C)c1c(C(=O)Nc2ccccc2)c(-c2ccccc2)c(-c2ccc(F)cc2)n1CC[C@@H](O)C[C@@H](O)CC(=O)O [atorvastatin] | – | – | significantly improved
3 | COc1ccc(Cl)cc1C(=O)NCCc1ccc(S(=O)(=O)NC(=O)NC2CCCCC2)cc1 [glibenclamide, Glibenclamide] | lowered | – | significantly improved
4 | CN(C)C(=N)N=C(N)N [metformin] | – | – | significantly improved
5 | O=C(O)c1ccccc1O [salicylate] | lowered | – | significantly improved
